Test results published in patent publication US20250161337A1, “IMMUNOSUPPRESSIVE COMPOSITION CONTAINING L-AHG” (Kyungpook National University Industry-Academic Cooperation …, priority 2022, published 2025).

Columns and labels:
Assay type in all cases: cell-based, mouse
[1] = tested on: T cells activated with immobilized anti-CD3/anti-CD28; experiment: [3H]-thymidine incorporation (proliferation) of G0 T cells activated with immobilized anti-CD3/anti-CD28; settings: for effect on [3H]thymidine incorporation of activated T cells: 25 to 400 μg/mL
Procedure: (§1) Isolation of resting (G0) T lymphocytes from spleens from 4-5-month-old C57BL/6J male mice was performed by a negative selection method from splenocytes using a T cell purification column kit (R&D Systems, Minneapolis, Minn., USA). At this time, the activation of G0 T cells was performed using a modification of the method of Kim et al., wherein pretreatment with rabbit anti-hamster IgG antibody (20 μg/mL) was performed so that the surface of the culture plastic container was smoothly coated with anti-CD3 (2.0 μg/mL) and anti-CD28 (2.0 μg/mL).
To evaluate the proliferation of T cells activated by immobilized anti-CD3/anti-CD28, 1×10^5 G0 T cells and each concentration of L-AHG together with 200 μL of RPMI 1640 complete medium were added to each well of a 96-well plate coated with anti-CD3 (2.0 μg/mL) and anti-CD28 (2.0 μg/mL), and activation of the cells was initiated by culture. At 29 hours after the activation, 0.25 μCi of [^3H]-thymidine was added to each well, and the amount of [^3H]-thymidine incorporated into the DNA of proliferating T cells was quantified by a liquid scintillation counter while the cells were further cultured for 12 hours.
First, using a 96-well plate, resting T cells (1×10^5 G0 T cells/well) were stimulated and activated with immobilized anti-CD3/anti-CD28 in the presence of various concentrations (0, 12.5, 25, 50, 100, 200, and 400 μg/mL) of L-AHG, NA2, NA4, or NA6. At 29 hours after the activation, 0.25 μCi of [^3H]thymidine was added to each well, followed by further culturing for an additional 12 hours. The amount of [^3H]thymidine incorporated into DNA following the T cell proliferation that occurred during this additional culturing time was quantified with a liquid scintillation counter, thereby determining the degree of T cell proliferation that occurred in each well.

[2] = tested on: CD4 T cells; experiment: First cell cycle progression of activated resting CD4 T cells, nocodazole arrest, DAPI flow cytometry
Procedure: as §1
(§2) To analyze the cell cycle of T cells activated by immobilized anti-CD3/anti-CD28 or to analyze the cytokine concentration in the culture supernatant, 3×10^6 G0 T cells and each concentration of L-AHG together with 2 mL of RPMI 1640 complete medium were added to each well of a 35-mm plate coated with anti-CD3 (2.0 μg/mL) and anti-CD28 (2.0 μg/mL), and activation of the cells was initiated by culture. At 30 hours after the activation, the culture was stopped and the cells and the culture supernatant were recovered by centrifugation.
(§3) Under the same culture conditions, in order for the first cell cycle progression initiated by the activation of G0 T cells to be arrested in prometaphase by nocodazole treatment, T lymphocytes were activated for 20 hours, and then nocodazole was added thereto at a concentration of 0.2 μg/mL, followed by followed by further culturing for an additional 10 hours. After completion of the culturing, the culture was centrifuged to recover the cells and the culture supernatant.
(§4) Resting (G0) T cells isolated from mouse splenocytes using a T cell purification column kit (R & D) and T cells obtained by activating G0 T cells with immobilized anti-CD3/anti-CD28 for a given period of time were subjected to anti-CD3, anti-CD4, anti-CD8, and DAPI staining.
(§5) About 5×10^5 cells were suspended in 100 μL of 1×PBS/1% FBS solution, and then 0.5 μg of anti-CD3, 0.5 μg of anti-CD4, and 0.5 μg of anti-CD8 were added thereto and allowed to react at 4° C. for 15 minutes, followed by washing twice with 1×PBS/1% FBS solution. Subsequently, the cells were fixed with 1% paraformaldehyde solution at 4° C. for 15 minutes, and the fixed cells were washed twice with 1×PBS solution and then stained with 10 μM DAPI for 15 minutes. The stained cells were analyzed with an Attune NxT flow cytometer (Thermo Fisher Scientific, Waltham, MA, USA) to determine the proportions of CD3 T cells, CD4 T cells, and CD8 T cells and the cell cycle distribution based on the increase in blue fluorescence depending on the amount of DAPI bound to intracellular DNA.
To this end, resting T cells were stimulated and activated with immobilized anti-CD3/anti-CD28, and when these cells reached the time point at which S phase started following G0 exit and G1 entry and progression, that is, when 20 hours have elapsed after the activation, the microtubule depolymerization agent nocodazole (a cell cycle-arresting agent that arrests cell cycle progression of eukaryotic cells at the prometaphase of M phase) was added to the cells, followed by further culturing for 10 hours. Through this unique experimental method, the first cell cycle initiated following the activation of resting T cells was allowed to progress through the G1, S, and G2 phases, and then arrest in the prometaphase of M phase due to microtubule damage caused by the effect of nocodazole. Then, these cells were recovered, treated and stained with fluorescently labeled anti-CD4 antibody, fluorescently labeled anti-CD8 antibody, and the DNA fluorescent staining reagent DAPI, and analyzed with a flow cytometer. As a result, the present inventors investigated how the aspect of the first cell cycle progression (G1, S, and G2/M phases), which is initiated following the activation of resting CD4 T cells and resting CD8 T cells, is affected by L-AHG.

[3] = tested on: CD8 T cells; experiment: First cell cycle progression of activated resting CD8 T cells, nocodazole arrest, DAPI flow cytometry
Procedure: as §1, §2, §3, §4, §5
To this end, resting T cells were stimulated and activated with immobilized anti-CD3/anti-CD28, and when these cells reached the time point at which S phase started following G0 exit and G1 entry and progression, that is, when 20 hours have elapsed after the activation, the microtubule depolymerization agent nocodazole (a cell cycle-arresting agent that arrests cell cycle progression of eukaryotic cells at the prometaphase of M phase) was added to the cells, followed by further culturing for 10 hours. […] Then, these cells were recovered, treated and stained with fluorescently labeled anti-CD4 antibody, fluorescently labeled anti-CD8 antibody, and the DNA fluorescent staining reagent DAPI, and analyzed with a flow cytometer. […]

[4] = tested on: IFN-γ; experiment: IFN-γ in culture supernatant of activated T cells, ELISA; settings: 30 h after activation
Procedure: as §2
(§6) After recovering the culture supernatant of T cells, the concentrations of IFN-γ, IL-2, IL-4 and IL-13 therein were analyzed using an ELISA kit (Mouse Uncoated Elisa Kit, Invitrogen) according to the manufacturer's instructions. […] The reaction was terminated by adding 100 μl of a reaction stop solution to each well, and the absorbances at wavelengths of 450 nm and 570 nm were measured with a Varioskan Lux Multimode Microplate Reader (Thermo Fisher Scientific). At this time, the value obtained by subtracting the absorbance measured at a wavelength of 570 nm from the absorbance measured at a wavelength of 450 nm was compared with a standard curve to determine the concentrations of cytokines present in the culture supernatant. […]

[5] = tested on: IL-2; experiment: IL-2 in culture supernatant of activated T cells, ELISA; settings: 25, 50, and 100 μg/mL; 30 h after activation
Procedure: as §2, §6

[6] = tested on: IL-4; experiment: IL-4 in culture supernatant of activated T cells, ELISA; settings: 30 h after activation
Procedure: as §2, §6

[7] = tested on: IL-13; experiment: IL-13 in culture supernatant of activated T cells, ELISA; settings: 25, 50, and 100 μg/mL; 30 h after activation
Procedure: as §2, §6

[8] = 100 μg/mL, 30 h after activation, nocodazole from 20 h

**Q.** What does the source list for `O=C[C@@H](O)[C@@H]1OC[C@H](O)[C@H]1O` [L-AHG, 3,6-anhydro-L-galactose]?
**A.** effect on the proliferation of activated T cells ([3H]thymidine incorporation) ([1]; 12.5 μg/ml, [3H]thymidine added 29 h after activation, 12 h further culture): no significant effect; [3H]thymidine incorporation relative to untreated control group ([1]; 100 μg/mL): about 22%; effect on [3H]thymidine incorporation of activated T cells [1]: inhibited [^3H]thymidine incorporation in a concentration-dependent manner; [3H]thymidine incorporation ([1]; 200 to 400 μg/mL): significantly decreased to an unmeasurable level; percentage of G1-phase CD4 T cells [2, 8]: 35.4%; percentage of G2/M phase CD4 T cells [2, 8]: 8.8%; percentage of S-phase CD4 T cells [2, 8]: 54.6%; percentage of CD4 T cells remaining in the G1+S phase without entering G2/M ([2]; 100 μg/ml, 30 h after activation, nocodazole from 20 h): about 90.0%; apoptotic cell death (proportion of apoptotic sub-G1 cells) in CD4 T cells ([2]; 25-100 μg/mL): not induced; percentage of CD4 T cells remaining in G1 and S phases without entering G2/M ([2]; 25 to 100 μg/ml, nocodazole from 20 h): increased in a manner dependent on the concentration; change in the percentage of G1-phase CD8 T cells [3, 8]: negligible; percentage of G2/M CD8 T cells [3, 8]: 41.8%; percentage of S-phase CD8 T cells [3, 8]: 46.6%; apoptotic cell death (proportion of apoptotic sub-G1 cells) in CD8 T cells ([3]; 25-100 μg/mL): not induced; cell cycle progression after activation of resting CD8 T cells ([3]; 25 to 50 μg/mL, nocodazole from 20 h): hardly affected; IFN-γ concentration in culture supernatant ([4]; 25 μg/mL): hardly affected; IFN-γ concentration in culture supernatant ([4]; 25, 50, and 100 μg/mL): significantly decreased; IL-2 concentration in culture supernatant [5]: significantly decreased; IL-4 concentration relative to untreated control group ([6]; 25 μg/mL): 38.5%; IL-4 concentration in culture supernatant ([6]; 25, 50, and 100 μg/mL): significantly decreased; IL-13 concentration in culture supernatant [7]: significantly decreased

**Q.** How did the “effect on [3H]thymidine incorporation of activated T cells” value (“effect on [3H]thymidine incorporation” below) [1] turn out when `OC[C@H]1OC(O)[C@H](O)[C@@H](O[C@@H]2O[C@H]3CO[C@@H]([C@@H]2O)[C@@H]3O)[C@H]1O` (stereo partly drawn) [NA2, neoagarobiose, reference compound] was run?
**A.** The value was “no significant effect”.

**Q.** `OC[C@H]1O[C@@H](O)[C@H](O)[C@@H](O[C@@H]2O[C@H]3CO[C@@H]([C@@H]2O)[C@@H]3O[C@@H]2O[C@H](CO)[C@H](O)[C@H](O[C@@H]3O[C@H]4CO[C@@H]([C@@H]3O)[C@@H]4O)[C@H]2O)[C@H]1O` [NA4, neoagarotetraose, reference compound] was tested. Which “effect on [3H]thymidine incorporation” value [1] did it give?
**A.** The value was “no significant effect”.

**Q.** With `OC[C@H]1O[C@@H](O)[C@H](O)[C@@H](O[C@@H]2O[C@H]3CO[C@@H]([C@@H]2O)[C@@H]3O[C@@H]2O[C@H](CO)[C@H](O)[C@H](O[C@@H]3O[C@H]4CO[C@@H]([C@@H]3O)[C@@H]4O[C@@H]3O[C@H](CO)[C@H](O)[C@H](O[C@@H]4O[C@H]5CO[C@@H]([C@@H]4O)[C@@H]5O)[C@H]3O)[C@H]2O)[C@H]1O` [NA6, neoagarohexaose, reference compound] as the compound, how does the “effect on [3H]thymidine incorporation” value [1] read?
**A.** The value was “no significant effect”.
